Data: patent US20250243171A1, “QUINAZOLINE COMPOUNDS FOR TREATMENT OF DISEASE” (Arthrosi Therapeutics, Inc., priority 2021, published 2025)

Key:
Experiment in all cases: EC50 assay: Ba/F3 stable cell proliferation (CCK-8, 72 h)
Assay type in all cases: cell-based
Ba/F3 stable cells [1] = molecular target: T1, Ba/F3 stable cells (Homo sapiens, UniProt P04626, DUP772-775, cells depend on it); settings: Ba/F3-HER2 A775-G776insYVMA cells
T1 construct: EC50 Ba/F3-HER2 A775-G776insYVMA; other: Ba/F3-HER2 A775-G776insYVMA cells, 72 h, CCK-8
In short: (§1)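 Ba/F3 stable cells were seeded at 4,000 cells/90 μL/well in 96-well plates and held 2 h at 37° C. in 5% CO2, then given 10 μL of serially titrated compound (0.1% DMSO final). After 72 h at 37° C., CCK-8 reagent was added for 4 hours and absorbance read at 450 nm to derive EC50.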

Ba/F3 stable cells [2] = molecular target: T2, Ba/F3 stable cells (Homo sapiens, UniProt P00533, INS763FQEA, cells depend on it); settings: Ba/F3-EGFR A763-Y764insFQEA cells
T2 construct: EC50 Ba/F3-EGFR A763-Y764insFQEA; other: Ba/F3-EGFR A763-Y764insFQEA cells, 72 h, CCK-8
In short: as §1

Ba/F3 stable cells [3] = molecular target: T3, Ba/F3 stable cells (Homo sapiens, UniProt P00533, DUP768-770, cells depend on it); settings: Ba/F3-EGFR D770-N771insSVD cells
T3 construct: EC50 Ba/F3-EGFR D770-N771insSVD; other: Ba/F3-EGFR D770-N771insSVD cells, 72 h, CCK-8
In short: as §1

Ba/F3 stable cells [4] = molecular target: T4, Ba/F3 stable cells (Homo sapiens, UniProt P00533, DUP767-769, cells depend on it); settings: Ba/F3-EGFR V769-D770insASV cells
T4 construct: EC50 Ba/F3-EGFR V769-D770insASV; other: Ba/F3-EGFR V769-D770insASV cells, 72 h, CCK-8
In short: as §1

Ba/F3 stable cells [5] = molecular target: T5, Ba/F3 stable cells (Homo sapiens, UniProt P00533, DUP771-773, cells depend on it); settings: Ba/F3-EGFR H773-V774insNPH cells
T5 construct: EC50 Ba/F3-EGFR H773-V774insNPH; other: Ba/F3-EGFR H773-V774insNPH cells, 72 h, CCK-8
In short: as §1

Ba/F3 stable cells [6] = molecular target: T6, Ba/F3 stable cells (Homo sapiens, UniProt P00533, T790M/L858R, cells depend on it); settings: Ba/F3-EGFR L858R-T790M cells
T6 construct: EC50 Ba/F3-EGFR L858R-T790M; other: Ba/F3-EGFR L858R-T790M cells, 72 h, CCK-8
In short: as §1

T6 sequence (P00533 whole entry T790M/L858R): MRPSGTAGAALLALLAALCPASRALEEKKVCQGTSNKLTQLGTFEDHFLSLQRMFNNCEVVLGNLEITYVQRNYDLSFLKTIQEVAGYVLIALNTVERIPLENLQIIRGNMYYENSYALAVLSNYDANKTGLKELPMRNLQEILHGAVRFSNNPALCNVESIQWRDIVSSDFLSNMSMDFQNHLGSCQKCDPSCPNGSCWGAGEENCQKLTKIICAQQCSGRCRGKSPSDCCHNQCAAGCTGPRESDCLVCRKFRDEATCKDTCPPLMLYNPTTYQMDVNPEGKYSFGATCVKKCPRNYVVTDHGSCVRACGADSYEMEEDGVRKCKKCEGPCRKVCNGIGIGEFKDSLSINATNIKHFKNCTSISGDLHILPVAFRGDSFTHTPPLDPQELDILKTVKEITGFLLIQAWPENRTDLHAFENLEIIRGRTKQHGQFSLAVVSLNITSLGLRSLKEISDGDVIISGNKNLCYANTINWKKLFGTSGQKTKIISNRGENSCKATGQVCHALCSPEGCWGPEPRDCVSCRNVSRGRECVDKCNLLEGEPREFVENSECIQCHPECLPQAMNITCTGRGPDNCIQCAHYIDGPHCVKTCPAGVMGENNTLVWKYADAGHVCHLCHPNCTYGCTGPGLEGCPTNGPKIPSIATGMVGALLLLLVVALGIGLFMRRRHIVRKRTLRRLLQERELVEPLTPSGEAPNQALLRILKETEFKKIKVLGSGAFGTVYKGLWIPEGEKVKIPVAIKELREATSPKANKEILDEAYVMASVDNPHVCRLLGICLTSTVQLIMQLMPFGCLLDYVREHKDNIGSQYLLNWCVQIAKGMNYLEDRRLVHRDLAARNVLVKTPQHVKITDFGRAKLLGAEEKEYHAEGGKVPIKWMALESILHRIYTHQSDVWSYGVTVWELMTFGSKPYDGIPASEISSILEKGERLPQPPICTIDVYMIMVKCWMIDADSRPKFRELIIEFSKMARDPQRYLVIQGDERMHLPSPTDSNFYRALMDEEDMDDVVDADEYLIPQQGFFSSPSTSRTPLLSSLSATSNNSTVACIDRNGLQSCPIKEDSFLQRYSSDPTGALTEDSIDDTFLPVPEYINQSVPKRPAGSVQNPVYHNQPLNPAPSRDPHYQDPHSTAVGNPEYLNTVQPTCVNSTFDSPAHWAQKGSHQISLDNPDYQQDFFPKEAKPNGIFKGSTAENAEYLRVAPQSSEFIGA
T5 sequence (P00533 with tags, fused parts or gaps DUP771-773): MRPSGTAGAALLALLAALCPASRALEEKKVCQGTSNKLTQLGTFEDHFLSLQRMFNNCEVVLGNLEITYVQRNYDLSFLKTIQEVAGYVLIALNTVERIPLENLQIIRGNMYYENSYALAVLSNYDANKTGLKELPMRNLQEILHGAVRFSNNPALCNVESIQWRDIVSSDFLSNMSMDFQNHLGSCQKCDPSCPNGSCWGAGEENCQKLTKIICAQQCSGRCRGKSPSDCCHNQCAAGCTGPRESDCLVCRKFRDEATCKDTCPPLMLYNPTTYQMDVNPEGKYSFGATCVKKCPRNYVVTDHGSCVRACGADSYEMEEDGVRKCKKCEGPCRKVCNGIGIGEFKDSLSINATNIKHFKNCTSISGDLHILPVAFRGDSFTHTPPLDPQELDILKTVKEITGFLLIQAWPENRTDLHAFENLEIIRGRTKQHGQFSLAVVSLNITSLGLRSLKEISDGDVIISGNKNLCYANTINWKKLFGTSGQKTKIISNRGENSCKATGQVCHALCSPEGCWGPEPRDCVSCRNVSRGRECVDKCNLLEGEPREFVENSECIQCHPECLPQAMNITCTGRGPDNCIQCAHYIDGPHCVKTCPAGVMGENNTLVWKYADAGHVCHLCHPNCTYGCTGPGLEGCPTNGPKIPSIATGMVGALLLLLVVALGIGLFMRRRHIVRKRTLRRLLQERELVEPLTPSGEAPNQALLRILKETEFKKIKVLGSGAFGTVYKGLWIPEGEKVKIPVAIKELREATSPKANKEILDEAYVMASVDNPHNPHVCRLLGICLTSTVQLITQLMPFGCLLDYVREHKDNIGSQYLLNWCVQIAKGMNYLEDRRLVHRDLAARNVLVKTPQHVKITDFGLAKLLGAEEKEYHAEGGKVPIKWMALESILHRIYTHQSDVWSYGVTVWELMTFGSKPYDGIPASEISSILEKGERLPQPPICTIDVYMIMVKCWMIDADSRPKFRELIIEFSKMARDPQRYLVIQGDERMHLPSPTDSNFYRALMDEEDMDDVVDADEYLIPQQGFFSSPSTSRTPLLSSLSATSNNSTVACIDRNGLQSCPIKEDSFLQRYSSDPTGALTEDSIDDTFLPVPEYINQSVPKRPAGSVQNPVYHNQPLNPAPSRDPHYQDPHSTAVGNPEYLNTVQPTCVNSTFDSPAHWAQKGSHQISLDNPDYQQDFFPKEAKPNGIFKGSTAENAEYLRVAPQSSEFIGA
T1 sequence (P04626 with tags, fused parts or gaps DUP772-775): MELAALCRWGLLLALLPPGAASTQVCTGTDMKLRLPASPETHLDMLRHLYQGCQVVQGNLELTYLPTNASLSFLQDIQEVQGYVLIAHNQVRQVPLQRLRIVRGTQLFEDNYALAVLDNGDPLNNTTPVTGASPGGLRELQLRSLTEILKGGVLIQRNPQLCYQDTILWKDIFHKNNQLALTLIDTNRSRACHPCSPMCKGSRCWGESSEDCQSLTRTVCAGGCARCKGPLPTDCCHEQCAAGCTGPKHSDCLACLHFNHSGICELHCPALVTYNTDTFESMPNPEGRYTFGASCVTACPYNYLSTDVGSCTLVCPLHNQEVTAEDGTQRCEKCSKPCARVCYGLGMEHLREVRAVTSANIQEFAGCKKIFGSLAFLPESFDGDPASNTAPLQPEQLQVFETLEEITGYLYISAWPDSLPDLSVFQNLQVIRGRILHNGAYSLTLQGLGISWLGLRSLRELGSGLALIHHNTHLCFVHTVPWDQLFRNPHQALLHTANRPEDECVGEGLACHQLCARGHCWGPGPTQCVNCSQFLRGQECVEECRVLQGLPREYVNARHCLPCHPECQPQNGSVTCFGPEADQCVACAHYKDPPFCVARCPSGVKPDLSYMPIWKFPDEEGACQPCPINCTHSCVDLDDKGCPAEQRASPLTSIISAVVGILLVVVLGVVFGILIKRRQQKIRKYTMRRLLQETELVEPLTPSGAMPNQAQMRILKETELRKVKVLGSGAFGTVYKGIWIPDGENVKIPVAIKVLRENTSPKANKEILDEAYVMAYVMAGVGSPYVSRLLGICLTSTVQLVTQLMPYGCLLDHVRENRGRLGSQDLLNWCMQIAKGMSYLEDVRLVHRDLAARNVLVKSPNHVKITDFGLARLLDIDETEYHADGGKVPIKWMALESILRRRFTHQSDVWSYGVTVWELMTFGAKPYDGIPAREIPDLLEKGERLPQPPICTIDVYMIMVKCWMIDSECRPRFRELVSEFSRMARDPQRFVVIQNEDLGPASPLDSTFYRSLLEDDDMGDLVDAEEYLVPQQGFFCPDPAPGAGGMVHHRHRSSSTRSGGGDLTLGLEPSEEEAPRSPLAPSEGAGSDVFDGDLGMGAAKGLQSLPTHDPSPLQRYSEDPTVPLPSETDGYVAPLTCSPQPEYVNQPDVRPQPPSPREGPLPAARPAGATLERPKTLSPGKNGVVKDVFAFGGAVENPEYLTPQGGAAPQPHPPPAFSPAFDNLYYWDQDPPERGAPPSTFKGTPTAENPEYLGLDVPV
T2 sequence (P00533 with tags, fused parts or gaps INS763FQEA): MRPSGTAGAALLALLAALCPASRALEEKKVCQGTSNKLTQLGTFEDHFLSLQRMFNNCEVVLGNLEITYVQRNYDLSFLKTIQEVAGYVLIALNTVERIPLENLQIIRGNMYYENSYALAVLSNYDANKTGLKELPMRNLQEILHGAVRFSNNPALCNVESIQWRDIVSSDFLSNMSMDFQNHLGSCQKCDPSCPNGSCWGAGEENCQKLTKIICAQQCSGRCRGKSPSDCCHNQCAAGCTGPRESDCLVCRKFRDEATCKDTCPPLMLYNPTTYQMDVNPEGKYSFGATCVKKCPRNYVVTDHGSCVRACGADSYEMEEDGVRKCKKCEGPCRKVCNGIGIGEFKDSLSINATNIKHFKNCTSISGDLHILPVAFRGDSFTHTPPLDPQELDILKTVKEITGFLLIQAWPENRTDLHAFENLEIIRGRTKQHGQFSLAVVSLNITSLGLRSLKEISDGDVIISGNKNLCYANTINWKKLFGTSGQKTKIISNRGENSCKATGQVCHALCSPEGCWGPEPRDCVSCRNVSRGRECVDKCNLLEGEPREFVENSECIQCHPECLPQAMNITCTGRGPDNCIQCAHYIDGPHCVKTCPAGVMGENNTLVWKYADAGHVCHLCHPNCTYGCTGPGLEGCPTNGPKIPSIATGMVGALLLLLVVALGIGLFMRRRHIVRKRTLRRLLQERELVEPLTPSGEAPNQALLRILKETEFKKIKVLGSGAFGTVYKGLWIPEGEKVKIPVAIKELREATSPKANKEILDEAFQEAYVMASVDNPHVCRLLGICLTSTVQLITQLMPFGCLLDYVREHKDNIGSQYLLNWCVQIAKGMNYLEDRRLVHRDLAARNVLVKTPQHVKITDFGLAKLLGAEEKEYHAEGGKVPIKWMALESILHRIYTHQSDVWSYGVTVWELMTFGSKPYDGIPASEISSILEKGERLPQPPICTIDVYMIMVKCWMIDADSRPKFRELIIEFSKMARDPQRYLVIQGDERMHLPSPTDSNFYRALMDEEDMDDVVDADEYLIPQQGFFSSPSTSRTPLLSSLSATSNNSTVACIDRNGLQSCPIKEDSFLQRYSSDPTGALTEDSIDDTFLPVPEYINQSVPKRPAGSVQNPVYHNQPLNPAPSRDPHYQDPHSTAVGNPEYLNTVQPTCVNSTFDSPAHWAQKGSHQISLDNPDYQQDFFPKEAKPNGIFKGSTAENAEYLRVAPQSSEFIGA

SMILES | EC50 (Ba/F3 stable cells [1]) [µM] | EC50 (Ba/F3 stable cells [2]) [µM] | EC50 (Ba/F3 stable cells [3]) [µM] | EC50 (Ba/F3 stable cells [4]) [µM] | EC50 (Ba/F3 stable cells [5]) [µM] | EC50 (Ba/F3 stable cells [6]) [µM]
C=CC(=O)N1CCC(Oc2cc3c(Nc4ccc5[nH]ccc5c4)ncnc3cc2OC)CC1 [Compound 169, 1-(4-((4-((1H-indol-5-yl)amino)-7-methoxyquinazolin-6-yl)oxy)piperidin-1-yl)prop-2-en-1-one] | ≤ 0.2 | ≤ 0.2 | 0.2 to 1 | ≤ 0.2 | ≤ 0.2 | 0.2 to 1
C=CC(=O)N1CCC(Oc2cc3c(Nc4ccc5c(ccn5C)c4)ncnc3cc2OC)CC1 [Compound 170, 1-(4-((7-methoxy-4-((1-methyl-1H-indol-5-yl)amino)quinazolin-6-yl)oxy)piperidin-1-yl)prop-2-en-1-one] | 0.2 to 1 | ≤ 0.2 | > 1 | 0.2 to 1 | 0.2 to 1 | ≤ 0.2
C=CC(=O)N1CCC(Oc2cc3c(NCc4ccc(F)cc4)ncnc3cc2OC)CC1 [Compound 172, 1-(4-((4-((4-fluorobenzyl)amino)-7-methoxyquinazolin-6-yl)oxy)piperidin-1-yl)prop-2-en-1-one] | ≤ 0.2 | ≤ 0.2 | 0.2 to 1 | ≤ 0.2 | 0.2 to 1 | > 1
C=CC(=O)N1CCC(Oc2cc3c(N[C@H](C)c4ccc(F)cc4)ncnc3cc2OC)CC1 [Compound 173, (R)-1-(4-((4-((1-(4-fluorophenyl)ethyl)amino)-7-methoxyquinazolin-6-yl)oxy)piperidin-1-yl)prop-2-en-1-one] | > 1 | ≤ 0.2 | > 1 | ≤ 0.2 | 0.2 to 1 | > 1
C=CC(=O)N1CCC(Oc2cc3c(C(=O)c4ccc(OC)cc4)ncnc3cc2OC)CC1 [Compound 174, 1-(4-((7-methoxy-4-(4-methoxybenzoyl)quinazolin-6-yl)oxy)piperidin-1-yl)prop-2-en-1-one] | > 1 | > 1 | > 1 | > 1 | > 1 | > 1
C=CC(=O)N1CCC(Oc2cc3c(C(=O)c4ccc(Cl)c(Cl)c4F)ncnc3cc2OC)CC1 [Compound 175, 1-(4-((4-(3,4-dichloro-2-fluorobenzoyl)-7-methoxyquinazolin-6-yl)oxy)piperidin-1-yl)prop-2-en-1-one] | 0.2 to 1 | ≤ 0.2 | 0.2 to 1 | ≤ 0.2 | ≤ 0.2 | 0.2 to 1
C=CC(=O)N1C2CCCC1CC(Oc1cc3c(Nc4ccc(Cl)c(Cl)c4F)ncnc3cc1OC)C2 (stereo not drawn) [Compound 176, 1-(3-((4-((3,4-dichloro-2-fluorophenyl)amino)-7-methoxyquinazolin-6-yl)oxy)-9-azabicyclo[3.3.1]nonan-9-yl)prop-2-en-1-one] | ≤ 0.2 | ≤ 0.2 | ≤ 0.2 | ≤ 0.2 | ≤ 0.2 | ≤ 0.2
C=CC(=O)N1C2CCC1CC(Oc1cc3c(Nc4ccc(Cl)c(Cl)c4F)ncnc3cc1OC)C2 (stereo not drawn) [Compound 177, 1-(3-((4-((3,4-dichloro-2-fluorophenyl)amino)-7-methoxyquinazolin-6-yl)oxy)-8-azabicyclo[3.2.1]octan-8-yl)prop-2-en-1-one] | ≤ 0.2 | ≤ 0.2 | ≤ 0.2 | ≤ 0.2 | ≤ 0.2 | ≤ 0.2
C=CC(=O)N1C2CCCC1CC(Oc1cc3c(Nc4cccc5ccccc45)ncnc3cc1OC)C2 (stereo not drawn) [Compound 178, 1-(3-((7-methoxy-4-(naphthalen-1-ylamino)quinazolin-6-yl)oxy)-9-azabicyclo[3.3.1]nonan-9-yl)prop-2-en-1-one] | ≤ 0.2 | ≤ 0.2 | 0.2 to 1 | ≤ 0.2 | ≤ 0.2 | ≤ 0.2
C=CC(=O)N1C2CCCC1CC(Oc1cc3c(Nc4ccc5ccccc5c4)ncnc3cc1OC)C2 (stereo not drawn) [Compound 179, 1-(3-((7-methoxy-4-(naphthalen-2-ylamino)quinazolin-6-yl)oxy)-9-azabicyclo[3.3.1]nonan-9-yl)prop-2-en-1-one] | ≤ 0.2 | ≤ 0.2 | 0.2 to 1 | ≤ 0.2 | ≤ 0.2 | ≤ 0.2
C=CC(=O)N1C2CCC1CC(Oc1cc3c(Nc4ccc5ccccc5c4)ncnc3cc1OC)C2 (stereo not drawn) [Compound 180, 1-(3-((7-methoxy-4-(naphthalen-2-ylamino)quinazolin-6-yl)oxy)-8-azabicyclo[3.2.1]octan-8-yl)prop-2-en-1-one] | ≤ 0.2 | ≤ 0.2 | ≤ 0.2 | ≤ 0.2 | ≤ 0.2 | ≤ 0.2
C=CC(=O)N1C2CCC1CC(Oc1cc3c(Nc4cccc5ccccc45)ncnc3cc1OC)C2 (stereo not drawn) [Compound 181, 1-(3-((7-methoxy-4-(naphthalen-1-ylamino)quinazolin-6-yl)oxy)-8-azabicyclo[3.2.1]octan-8-yl)prop-2-en-1-one] | ≤ 0.2 | ≤ 0.2 | ≤ 0.2 | ≤ 0.2 | ≤ 0.2 | ≤ 0.2
C=CC(=O)N1C2CCCC1CC(Oc1cc3c(Nc4cccc5c4CCC5)ncnc3cc1OC)C2 (stereo not drawn) [Compound 182, 1-(3-((4-((2,3-dihydro-1H-inden-4-yl)amino)-7-methoxyquinazolin-6-yl)oxy)-9-azabicyclo[3.3.1]nonan-9-yl)prop-2-en-1-one] | > 1 | ≤ 0.2 | > 1 | 0.2 to 1 | 0.2 to 1 | 0.2 to 1
C=CC(=O)N1C2CCC1CC(Oc1cc3c(Nc4cccc5c4CCC5)ncnc3cc1OC)C2 (stereo not drawn) [Compound 183, 1-(3-((4-((2,3-dihydro-1H-inden-4-yl)amino)-7-methoxyquinazolin-6-yl)oxy)-8-azabicyclo[3.2.1]octan-8-yl)prop-2-en-1-one] | 0.2 to 1 | ≤ 0.2 | 0.2 to 1 | ≤ 0.2 | ≤ 0.2 | ≤ 0.2
C=CC(=O)N1CCCC(c2ccc3ncnc(Nc4ccc(Cl)c(Cl)c4F)c3c2)C1 (stereo not drawn) [Compound 184, 1-(3-(4-((3,4-dichloro-2-fluorophenyl)amino)quinazolin-6-yl)piperidin-1-yl)prop-2-en-1-one] | ≤ 0.2 | ≤ 0.2 | 0.2 to 1 | ≤ 0.2 | 0.2 to 1 | > 1
C=CC(=O)N1CCCC(c2cc3c(Nc4ccc(Cl)c(Cl)c4F)ncnc3cc2OC)C1 (stereo not drawn) [Compound 185, 1-(3-(4-((3,4-dichloro-2-fluorophenyl)amino)-7-methoxyquinazolin-6-yl)piperidin-1-yl)prop-2-en-1-one] | 0.2 to 1 | ≤ 0.2 | 0.2 to 1 | ≤ 0.2 | ≤ 0.2 | ≤ 0.2
C=CC(=O)N1CCC=C(c2cc3c(Nc4ccc(Cl)c(Cl)c4F)ncnc3cc2OC)C1 [Compound 186, 1-(5-(4-((3,4-dichloro-2-fluorophenyl)amino)-7-methoxyquinazolin-6-yl)-3,6-dihydropyridin-1(2H)-yl)prop-2-en-1-one] | 0.2 to 1 | ≤ 0.2 | 0.2 to 1 | ≤ 0.2 | ≤ 0.2 | > 1
C=CC(=O)N1CCC=C(c2ccc3ncnc(Nc4ccc(Cl)c(Cl)c4F)c3c2)C1 [Compound 187, 1-(5-(4-((3,4-dichloro-2-fluorophenyl)amino)quinazolin-6-yl)-3,6-dihydropyridin-1(2H)-yl)prop-2-en-1-one] | 0.2 to 1 | ≤ 0.2 | 0.2 to 1 | ≤ 0.2 | 0.2 to 1 | 0.2 to 1
C=CS(=O)(=O)N1CCCC(c2ccc3ncnc(Nc4ccc(Cl)c(Cl)c4F)c3c2)C1 (stereo not drawn) [Compound 188, N-(3,4-dichloro-2-fluorophenyl)-6-(1-(vinylsulfonyl)piperidin-3-yl)quinazolin-4-amine] | 0.2 to 1 | ≤ 0.2 | 0.2 to 1 | ≤ 0.2 | ≤ 0.2 | ≤ 0.2
C=CS(=O)(=O)N1CCC=C(c2ccc3ncnc(Nc4ccc(Cl)c(Cl)c4F)c3c2)C1 [Compound 190, N-(3,4-dichloro-2-fluorophenyl)-6-(1-(vinylsulfonyl)-1,2,5,6-tetrahydropyridin-3-yl)quinazolin-4-amine] | 0.2 to 1 | ≤ 0.2 | ≤ 0.2 | ≤ 0.2 | ≤ 0.2 | ≤ 0.2
